Columns and labels:
[1] = test system: catchweed bedstraw (GALAP); test: greenhouse herbicidal action, post-emergence treatment; format: in vivo; conditions: application rates of 15.6 and 31.3 g of a.s./ha
Excerpt: (§1) The seeds of the test plants were sewn separately for each species. For the post-emergence treatment, the test plants were first grown to a height of from 3 to 15 cm, depending on the plant habit, and only then treated with the active compounds which had been suspended or emulsified in water. The test plants were for this purpose either sown directly and grown in the same containers, or they were first grown separately as seedlings and transplanted into the test containers a few days prior to treatment. The application rate for the post-emergence treatment was 31.3 and 15.6 g of a.s./ha. Depending on the species, the plants were kept at 10-25° C. or 20-35° C. The test period extended over 2 to 4 weeks. During this time, the plants were tended, and their response to the individual treatments was evaluated. The evaluation was carried out using a scale from 0 to 100. 100 means no emergence of the plants, or complete destruction of at least the above-ground parts, and 0 means no damage, or normal course of growth. The plants used in the greenhouse experiments were of the following species: [table]

dayflower (COMBE) = test: as above; format: in vivo; conditions: application rates of 15.6 and 31.3 g of a.s./ha
Excerpt: as §1

morning glory (IPOSS) = test: as above; format: in vivo; conditions: application rates of 15.6 and 31.3 g of a.s./ha
Excerpt: as §1

redroot pigweed (AMARE) = test: as above; format: in vivo; conditions: application rates of 15.6 and 31.3 g of a.s./ha
Excerpt: as §1

velvet leaf (ABUTH) = test: as above; format: in vivo; conditions: application rates of 15.6 and 31.3 g of a.s./ha
Excerpt: as §1

| melting point | Structure (SMILES) | herbicidal action [1] | herbicidal action (dayflower (COMBE)) | herbicidal action (morning glory (IPOSS)) | herbicidal action (redroot pigweed (AMARE)) | herbicidal action (velvet leaf (ABUTH)) |
| --- | --- | --- | --- | --- | --- | --- |
| 110 to 111 °C | FC(F)(F)c1snc(-c2c(Cl)cc(Cl)c3nc(C4CC4)oc23)c1Cl [IDa.67, 4,6-Dichloro-7-(4-chloro-5-trifluoromethyl-3-isothiazolyl)-2-cyclopropyl-1,3-benzoxazole] | – | – | – | – | – |
| 161 to 164 °C | CS(=O)(=O)Nc1cc(-c2nsc(C(F)(F)F)c2Cl)c(Cl)cc1Cl [IAa.361, N-{2,4-Dichloro-5-[4-chloro-5-(trifluoromethyl)-3-isothiazolyl]-phenyl}methanesulfonamide] | – | – | – | – | – |
| – | COC(=O)C(C)Oc1cc(-c2nsc(C(F)(F)F)c2Cl)c(F)cc1Cl (stereo not shown) [IAa.727, Methyl 2-[2-chloro-4-fluoro-5-(4-chloro-5-trifluoromethylisothiazol-3-yl)phenoxy]propionate] | very good herbicidal action | very good herbicidal action | very good herbicidal action | very good herbicidal action | very good herbicidal action |

Reference: patent publication US20040023807A1, “3-Arylisothiazoles and their use as herbicides” (priority 2000, published 2004)
